System: paddy field weeds
Test: Test for herbicidal effect against paddy field weeds
Format: in vivo
Details: application rate of 0.5 kg/ha, applied to the surface of the water 5 days after rice transplantation, examined after 3 weeks, greenhouse pot
Experimental: Test for Herbicidal Effect Against Paddy Field Weeds
Preparation of formulation of the active compound
Carrier: Acetone 5 parts by weight
Emulsifier: Benzyloxypolyglycolether 1 part by weight
A formulation of the active compound is obtained as an emulsion by mixing 1 part by weight of the active compound with the above-mentioned amount of carrier and emulsifier. A prescribed amount of said formulation is diluted with water to prepare a formulation for testing.
In a greenhouse 3 seedlings of paddy rice (cultivar: Nipponbare) of 2.5 leafstage (15 cm tall) were transplanted in a 500 cm^2 pot filled with paddy field soil. Then seeds of barnyard grass, smallflower, bulrush, monochoria and broad-leaved weeds (common false pimpernel, Indian toothcup, long stemmed water wort, Ammannia multiflora Roxb., Dopatrium junceum Hammilt etc.) were sown and water was poured on the soil to a depth of about 2-3 cm.
5 days after the rice transplantation a formulation of each active compound prepared according to the aforementioned preparation method was applied to the surface of the water. A water depth of 3 cm was maintained. The herbicidal effect was examined after 3 weeks from the treatment. The herbicidal effect was rated as 100% in the case of complete death and as 0% in the case of no herbicidal effect.

With `CC(C)N(C(=O)n1nnn([C@@H](C)c2ccccc2)c1=O)c1ccccc1` [compound 3, 1-((S)-α-methylbenzyl)-4-(N-isopropyl-N-phenylcarbamoyl)-5(4H)-tetrazolinone] the “herbicidal effect against paddy field weeds” value was “sufficient herbicidal effect”.

— US6548450B1, “Tetrazolinone derivatives” (Nihon Bayer Agrochem, K.K., priority 1999, dated 2003)
